# Assay results as given in US7141562B2, “Substituted benzoxazinones and uses thereof” (Roche Palo Alto LLC, priority 2002, dated 2006).
# pKi: −log10 of the molar value. Structures can show the parent of a compound that is named as a salt.
# Tests used:
# [1] = target: T1, recombinant human 5-HT6 receptor (Homo sapiens, UniProt P50406); assay: Radioligand binding: competition for [3H]LSD binding in membranes of HEK293 cells expressing the receptor; details: [3H]LSD (5 nM), HEK293 cell membranes, 60 min at 37° C., pH 7.4, duplicate determinations
# T1 construct: expressed in transfected cells; cell membranes used
# Method: The binding activity of compounds of this invention in vitro was determined as follows. Duplicate determinations of ligand affinity are made by competing for binding of [^3H]LSD in cell membranes derived from HEK293 cells stably expressing recombinant human 5-HT6 receptor.
# All determinations were made in assay buffer containing 50 mM Tris-HCl, 10 mM MgSO4, 0.5 mM EDTA, 1 mM ascorbic acid, pH 7.4 at 37° C., in a 250 microliter reaction volume. Assay tubes containing [^3H] LSD (5 nM), competing ligand, and membrane were incubated in a shaking water bath for 60 min. at 37° C., filtered onto Packard GF-B plates (presoaked with 0.3% PEI) using a Packard 96 well cell harvester and washed 3 times in ice cold 50 mM Tris-HCl. Bound [^3H] LSD was determined as radioactive counts per minute using Packard TopCount.
# Displacement of [3H]LSD from the binding sites was quantified by fitting concentration-binding data to a 4-parameter logistic equation:
# [formula] where Hill is the Hill slope, [ligand] is the concentration of competing radioligand and IC50 is the concentration of radioligand producing half-maximal specific binding of radioligand. The specific binding window is the difference between the Bmax and the basal parameters.
# T1 sequence (P50406 whole entry): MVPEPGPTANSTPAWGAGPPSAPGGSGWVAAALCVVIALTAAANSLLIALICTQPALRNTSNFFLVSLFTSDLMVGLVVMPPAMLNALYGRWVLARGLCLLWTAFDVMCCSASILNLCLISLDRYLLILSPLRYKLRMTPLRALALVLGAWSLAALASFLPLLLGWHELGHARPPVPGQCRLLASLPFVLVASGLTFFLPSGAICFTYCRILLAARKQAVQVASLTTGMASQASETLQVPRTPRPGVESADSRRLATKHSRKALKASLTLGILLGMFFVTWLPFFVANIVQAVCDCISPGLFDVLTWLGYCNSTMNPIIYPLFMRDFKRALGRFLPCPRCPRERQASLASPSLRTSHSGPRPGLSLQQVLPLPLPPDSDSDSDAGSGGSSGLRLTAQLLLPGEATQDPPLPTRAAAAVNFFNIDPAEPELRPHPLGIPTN
smiles,measurement,setting,value
COc1cc(N2CCNCC2)c2c(c1)N(Cc1cccc(Cl)c1)C(=O)CO2 (as salt: hydrochloride),melting point,,55.2 to 58.8 °C
"C[C@@H]1Oc2c(N3CCNCC3)cccc2N(Cc2ccccc2)C1=O [(S)-4-Benzyl-2-methyl-8-piperazin-1-yl-4H-benzo[1,4]oxazin-3-one]",pKi,[1],9.12
"O=C1COc2c(N3CCNCC3)cccc2N1Cc1ccccc1F [4-(2-fluoro-benzyl)-8-piperazin-1-yl-4H-benzo[1,4]oxazin-3-one]",pKi,[1],9.04
O=C1COc2c(N3CCNCC3)cccc2N1Cc1ccccc1 (as salt: hydrochloride),melting point,,250.9 to 253.8 °C
"CC1(C)Oc2c(N3CCNCC3)cccc2N(Cc2ccccc2)C1=O [4-Benzyl-2,2-dimethyl-8-piperazin-1-yl-4H-benzo[1,4]oxazin-3-one]",pKi,[1],9.13
"O=C1COc2c(N3CCNCC3)cc(F)cc2N1Cc1ccccc1F [4-(2-fluoro-benzyl)-6-fluoro-8-piperazin-1-yl-4H-benzo[1,4]oxazin-3-one]",pKi,[1],9.17
"CC1(C)Oc2c(N3CCNCC3)cccc2N(Cc2cccc(Cl)c2)C1=O [4-(3-Chloro-benzyl)-2,2-dimethyl-8-piperazin-1-yl-4H-benzo[1,4]oxazin-3-one]",pKi,[1],9.12
